US6379659B1, “Keratin fiber strengthening agent and method for strengthening keratin fiber” (Takasago International Corporation, priority 1997, dated 2002)

Tests used:
[1] = Breaking strength test on solvent-damaged human hair (Example 31); details: damaged (chloroform/ethanol-treated) hair of person soaked in treating agent; 25° C., 40% RH; average n = 10
Description: Hair samples 1 to 5 were prepared and subjected to a destructive test under the following conditions by the use of Shimadzu Autograph AGS-500B (manufactured by Shimadzu Corp.) to measure a breaking strength.
Hair: A hair having a length of about 15 cm and a diameter of about 0.08 to 0.1 mm, clamped 5.7 cm from each end.
(§1) Pulling speed: 5.0 cm/min
(§2) Atmosphere: 25° C., 40% RH
(§3) Healthy hair, cut off from a person at a beauty parlor, which had not been permed nor bleached, was used.
The healthy hair (untreated hair, sample 1) weighing 50 g was soaked in 450 ml of a 2:1 (by volume) mixture of chloroform and ethanol and subjected to ultrasonication for 15 minutes to remove lipids. The sample was washed with 250 ml of a 2:1 (by volume) mixture of chloroform and ethanol and then with 100 ml of acetone and dried to prepare solvent-treated hair as damaged hair (sample 2).
The solvent-treated hair weighing 40 g was soaked in a 5-fold weight of each of the blank treating agent of Comparative Example 1, the racemate-containing treating agent of Comparative Example 2, and the keratin fiber strengthening agent of Example 1 and subjected to ultrasonication for 15 minutes, followed by washing with five 1000 ml portions of water. The treated hair was dried under reduced pressure at 60° C. 2 hours and then under reduced pressure for 3 hours to prepare samples 3 to 5, respectively.

[2] = Breaking strength test on dog hair (Example 36)
Description: Dog hair samples 11 to 15 were prepared as follows and subjected to a destructive test under the following conditions by the use of Shimadzu Autograph AGS-SOOB (manufactured by Shimadzu Corp.) to measure a breaking strength and a Young's modulus. The breaking strength and Young's modulus data obtained are also graphically represented in FIGS. 4 and 5, respectively.
Dog Hair: A dog hair having a length of about 10 to 15 cm and a diameter of about 0.08 to 0.1 mm, clamped 2 cm from each end.
as §1, §2
Healthy dog hairs collected from around the neck of a 4-year-old male Shetland sheepdog were used. The untreated hair as collected (sample 11) weighing 50 g was treated in the same manner as in Example 31 to prepare samples 12 to 15.

[3] = Young's modulus, breaking strength, elongation and toughness of solvent-damaged human hair (Examples 33, 35); details: damaged hair of person soaked in treating agent; n=10
Description: as §3
Healthy hair (untreated hair, sample 6) was treated with a chloroform-ethanol mixed solvent in the same manner as in Example 31 to prepare sample 7. Samples 8 to 10 were prepared in the same manner as for samples 3 to 5 of Example 31. The breaking strength of each sample was measured by means of Shimadzu Autograph. A Young's modulus was also measured.

[4] = Breaking strength test, elongation and toughness of solvent-damaged human hair (Example 38)
Description: Samples (Samples 16 to 19) were prepared as described below and breaking strength test and measurement of elongation were carried out under the below-described measuring conditions by using Shimadzu Autograph AGS0599B (manufactured by Simadzu Corp). Based on the results, toughness (breaking strength×elongation) of each of Samples 16 to 19 was calculated.
Relative humidity: 40%, temperature: 25° C.
Hair employed for the test: A hair having a length of about 15 cm and a diameter of about 0.08 to 0.1 mm, clamped 5.0 cm from each end.
as §1
(b) Preparation of Samples (Samples 16 to 19)
as §3
The healthy hair (untreated hair, Sample 16) weighing 50 g was soaked in 450 ml of a 2:1 mixture of chloroform and ethanol and subjected to ultrasonication for 15 minutes to remove lipid components. The sample was then washed with 250 ml of a 2:1 mixture of chloroform and ethanol and then with 100 ml of acetone, followed by drying under reduced pressure, whereby organic-solvent-treated hair (Sample 17) was obtained.
The solvent-treated hair (Sample 17) weighing 40 g was soaked in a 5-fold weight of each of the treating agents and subjected to ultrasonication for 15 minutes. The hair was then washed five times with 1000 ml of water, followed by drying at 60° C. for 2 hours under reduced pressure and then drying for 3 hours under reduced pressure, whereby each of Samples 18 to 19 were obtained. Described specifically, Sample 18 was the hair treated with the treating agent (placebo treating agent), which had been prepared in Comparative Example 3, subsequent to the treatment with a solvent, while Sample 19 was the hair treated with the keratin fiber strengthening agent of the present invention (Compound-6-containing treating agent) which had been prepared in […].
The differences of the samples are summarized as follows.
Sample 16: Healthy hair (untreated)
Sample 17: Hair treated with the solvent
Sample 18: Hair treated with the solvent and then with the placebo treating agent prepared in Comparative Example
Sample 19: Hair treated with the solvent and then with the keratin fiber strengthening agent of the present invention (Compound-6-containing treating agent) prepared in Example 31

[5] = damaged dog hair soaked in treating agent, n = 10
[6] = solvent-treated hair of person soaked in treating agent, mean n=10

SMILES	Breaking Strength [1]	Breaking Strength per area ([2]; damaged dog hair soaked in treating agent)	Breaking Strength [2, 5]	Young's Modulus [2, 5]	Improvements on breaking strength and Young's modulus, in words ([2]; not only human hair but dog hair)	Breaking Strength [3]	Elongation [3]	Toughness (product of breaking strength and elongation) [3]	Breaking strength of hair as compared with the placebo treating agent, in words ([4]; P<0.05 vs Sample 18)	Breaking Strength [4, 6]	Elongation [4, 6]	Toughness (breaking strength×elongation) [4, 6]
CCCCCCCCCCCCCCCCCC(=O)N[C@@H](CO)[C@H](O)CCCCCCCCCCCCCCC [Compound 1, (2S,3R)-2-octadecanoylaminooctadecane-1,3-diol]	0.2058 kgf	42.55 kgf/mm^2	0.1196 kgf	605.240 kgf/mm^2	significant improvements	0.2941 kgf	27.08 mm	7.9642 kgf × mm				
CCCCCCCCCCCCCCC[C@@H](O)[C@H](CO)NC(=O)C(O)CCCCCCCCCCCCCC (stereo partly drawn) [Compound 6, (2S,3R)-2-(2-hydroxyhexadecanoyl)aminooctadecane-1,3-diol]									significantly increases	0.266 Kgf	26.02 mm	6.921 kgf·mm
